Target: NLpoly 11S (Oplophorus gracilirostris, UniProt Q9GV45, A31E/A60N/A81I/D135N/F58L/F95D/G184S/G42A/G62A/G78A/G94A/G98A/H120P/I103V/I117V/I134L/K70R/L176M/L26M/L54V/L73R/L99Q/M102E/N171T/P142E/Q151K/Q38E/Q45L/T27V/V71I/Y165I)
Assay: biochemical
Assay type: binding

Sequence of NLpoly 11S (Q9GV45 26-184 with the stated changes limits assumed): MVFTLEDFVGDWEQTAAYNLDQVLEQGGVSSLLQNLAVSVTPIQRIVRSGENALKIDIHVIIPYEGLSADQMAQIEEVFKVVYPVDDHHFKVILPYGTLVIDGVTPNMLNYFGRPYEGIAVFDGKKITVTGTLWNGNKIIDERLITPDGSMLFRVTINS

CC[C@H](C)[C@H](NC(=O)[C@H](CCCCN)NC(=O)[C@H](CCC(=O)O)NC(=O)[C@H](Cc1ccccc1)NC(=O)[C@H](CC(C)C)NC(=O)[C@H](CCCNC(=N)N)NC(=O)[C@H](Cc1ccc(O)cc1)NC(=O)CNC(=O)[C@@H](NC(=O)[C@@H](NC(C)=O)C(C)C)[C@@H](C)O)C(=O)N[C@@H](CO)C(N)=O [array2.19, VTGYRLFEKIS]
Kd: 0.605 µM

Ac-VEGYRLFKEES-NH2 [array2.63, VEGYRLFKEES]
Kd: 220 µM

Ac-VTGYRLFQKIL-NH2 [array2.37, VTGYRLFQKIL]
Kd: 0.362 µM

Ac-VEGYRLFQQAS-NH2 [array2.68, VEGYRLFQQAS]
Kd: 20 µM

Ac-VEGYRLFQEAL-NH2 [array2.98, VEGYRLFQEAL]
Kd: 99.9 µM

Ac-VTGYRLFKKAS-NH2 [array2.2, VTGYRLFKKAS]
Kd: 0.241 µM

Ac-VEGYRLFQKES-NH2 [array2.66, VEGYRLFQKES]
Kd: 2.87 µM

Ac-VTGYRLFKQAL-NH2 [array2.32, VTGYRLFKQAL]
Kd: 3.56 µM

Ac-VEGYRLFEKAL-NH2 [array2.101, VEGYRLFEKAL]
Kd: 12.6 µM

Ac-VTGYRLFKQAS-NH2 [array2.5, VTGYRLFKQAS]
Kd: 1.95 µM

Ac-VTGYRLFEQIL-NH2 [array2.49, VTGYRLFEQIL]
Kd: 124 µM

Ac-VEGYRLFQKAS-NH2 [array2.65, VEGYRLFQKAS]
Kd: 1.93 µM

Ac-VTGYRLFKKAL-NH2 [array2.29, VTGYRLFKKAL]
Kd: 0.275 µM

Ac-VTGYRLFEQES-NH2 [array2.24, VTGYRLFEQES]
Kd: 7.83 µM

Ac-VTGYRLFEKIL-NH2 [array2.46, VTGYRLFEKIL]
Kd: 1.92 µM

Ac-VEGYRLFQEAS-NH2 [array2.71, VEGYRLFQEAS]
Kd: 24 µM

Ac-VTGYRLFQKAL-NH2 [array2.38, VTGYRLFQKAL]
Kd: 0.975 µM

Ac-VTGYRLFQEAL-NH2 [array2.44, VTGYRLFQEAL]
Kd: 16 µM

Ac-VTGYRLFQQES-NH2 [array2.15, VTGYRLFQQES]
Kd: 7.49 µM

Ac-VTGYRLFKEES-NH2 [array2.9, VTGYRLFKEES]
Kd: 3.86 µM

Ac-VEGYRLFEQAS-NH2 [array2.77, VEGYRLFEQAS]
Kd: 48.3 µM

Ac-VTGYRLFKEAS-NH2 [array2.8, VTGYRLFKEAS]
Kd: 2.57 µM

Ac-VTGYRLFKKEL-NH2 [array2.30, VTGYRLFKKEL]
Kd: 0.671 µM

Ac-VEGYRLFKQAS-NH2 [array2.59, VEGYRLFKQAS]
Kd: 2.09 µM

Ac-VTGYRLFKKES-NH2 [array2.3, VTGYRLFKKES]
Kd: 0.773 µM

Ac-VTGYRLFKEIL-NH2 [array2.34, VTGYRLFKEIL]
Kd: 4.41 µM

Ac-VTGYRLFEEIL-NH2 [array2.52, VTGYRLFEEIL]
Kd: 104 µM

Ac-VEGYRLFEEAS-NH2 [array2.80, VEGYRLFEEAS]
Kd: 1420 µM

Ac-VTGYRLFEKEL-NH2 [array2.48, VTGYRLFEKEL]
Kd: 2.44 µM

Ac-VEGYRLFKEIL-NH2 [array2.88, VEGYRLFKEIL]
Kd: 17.8 µM

Ac-VTGYRLFQEEL-NH2 [array2.45, VTGYRLFQEEL]
Kd: 35.4 µM

Ac-VEGYRLFKEAL-NH2 [array2.89, VEGYRLFKEAL]
Kd: 42.4 µM

Ac-VTGYRLFEQIS-NH2 [array2.22, VTGYRLFEQIS]
Kd: 10.8 µM

Ac-VEGYRLFEKEL-NH2 [array2.102, VEGYRLFEKEL]
Kd: 5.79 µM

Ac-VEGYRLFQQEL-NH2 [array2.96, VEGYRLFQQEL]
Kd: 99.4 µM

Ac-VEGYRLFEQIS-NH2 [array2.76, VEGYRLFEQIS]
Kd: 52.8 µM

Ac-VTGYRLFKQIS-NH2 [array2.4, VTGYRLFKQIS]
Kd: 0.746 µM

Ac-VEGYRLFQQIL-NH2 [array2.94, VEGYRLFQQIL]
Kd: 9.39 µM

Ac-VTGYRLFQKEL-NH2 [array2.39, VTGYRLFQKEL]
Kd: 2.48 µM

Ac-VEGYRLFKEEL-NH2 [array2.90, VEGYRLFKEEL]
Kd: 101 µM

Ac-VTGYRLFQEIL-NH2 [array2.43, VTGYRLFQEIL]
Kd: 17.3 µM

Ac-VEGYRLFQQIS-NH2 [array2.67, VEGYRLFQQIS]
Kd: 8.14 µM

Ac-VTGYRLFQEES-NH2 [array2.18, VTGYRLFQEES]
Kd: 67.3 µM

Ac-VEGYRLFKKAS-NH2 [array2.56, VEGYRLFKKAS]
Kd: 0.641 µM

Ac-VTGYRLFQQEL-NH2 [array2.42, VTGYRLFQQEL]
Kd: 19 µM

Ac-VEGYRLFKEAS-NH2 [array2.62, VEGYRLFKEAS]
Kd: 22.1 µM

Ac-VTGYRLFQQAS-NH2 [array2.14, VTGYRLFQQAS]
Kd: 1.11 µM

Ac-VTGYRLFQQIS-NH2 [array2.13, VTGYRLFQQIS]
Kd: 0.876 µM

Ac-VTGYRLFEQEL-NH2 [array2.51, VTGYRLFEQEL]
Kd: 85 µM

Ac-VEGYRLFKQIS-NH2 [array2.58, VEGYRLFKQIS]
Kd: 2.09 µM

Ac-VTGYRLFKQIL-NH2 [array2.31, VTGYRLFKQIL]
Kd: 2.99 µM

Ac-VTGYRLFKKIL-NH2 [array2.28, VTGYRLFKKIL]
Kd: 0.0766 µM

Ac-VTGYRLFKQEL-NH2 [array2.33, VTGYRLFKQEL]
Kd: 1.95 µM

Ac-VTGYRLFQKIS-NH2 [array2.10, VTGYRLFQKIS]
Kd: 0.0812 µM

Ac-VEGYRLFEKIS-NH2 [array2.73, VEGYRLFEKIS]
Kd: 2.15 µM

Ac-VEGYRLFQKIS-NH2 [array2.64, VEGYRLFQKIS]
Kd: 0.586 µM

Ac-VEGYRLFKEIS-NH2 [array2.61, VEGYRLFKEIS]
Kd: 14.4 µM

Ac-VEGYRLFEKES-NH2 [array2.75, VEGYRLFEKES]
Kd: 2.97 µM

Ac-VEGYRLFEQES-NH2 [array2.78, VEGYRLFEQES]
Kd: 252 µM

Ac-VEGYRLFEKIL-NH2 [array2.100, VEGYRLFEKIL]
Kd: 10.6 µM

Ac-VTGYRLFKEIS-NH2 [array2.7, VTGYRLFKEIS]
Kd: 4.44 µM

Ac-VEGYRLFKQEL-NH2 [array2.87, VEGYRLFKQEL]
Kd: 12.6 µM

Ac-VEGYRLFKQIL-NH2 [array2.85, VEGYRLFKQIL]
Kd: 10.3 µM

Ac-VTGYRLFEKAL-NH2 [array2.47, VTGYRLFEKAL]
Kd: 1.81 µM

Ac-VEGYRLFKKIS-NH2 [array2.55, VEGYRLFKKIS]
Kd: 0.078 µM

Ac-VTGYRLFKQES-NH2 [array2.6, VTGYRLFKQES]
Kd: 1.35 µM

Ac-VTGYRLFQKAS-NH2 [array2.11, VTGYRLFQKAS]
Kd: 0.748 µM

Ac-VEGYRLFQKIL-NH2 [array2.91, VEGYRLFQKIL]
Kd: 2.08 µM

Ac-VEGYRLFQQAL-NH2 [array2.95, VEGYRLFQQAL]
Kd: 18.8 µM

Ac-VTGYRLFEKAS-NH2 [array2.20, VTGYRLFEKAS]
Kd: 1.79 µM

Ac-VTGYRLFEEEL-NH2 [array2.54, VTGYRLFEEEL]
Kd: 68.3 µM

Ac-VEGYRLFKQAL-NH2 [array2.86, VEGYRLFKQAL]
Kd: 2.27 µM

Ac-VTGYRLFQEIS-NH2 [array2.16, VTGYRLFQEIS]
Kd: 2.56 µM

Ac-VEGYRLFEKAS-NH2 [array2.74, VEGYRLFEKAS]
Kd: 4.14 µM

Ac-VEGYRLFKKIL-NH2 [array2.82, VEGYRLFKKIL]
Kd: 0.563 µM

Ac-VEGYRLFKKES-NH2 [array2.57, VEGYRLFKKES]
Kd: 0.891 µM

Ac-VEGYRLFEQAL-NH2 [array2.104, VEGYRLFEQAL]
Kd: 336 µM

Ac-VEGYRLFKKEL-NH2 [array2.84, VEGYRLFKKEL]
Kd: 1.41 µM

Ac-VEGYRLFQKEL-NH2 [array2.93, VEGYRLFQKEL]
Kd: 1.69 µM

Ac-VTGYRLFQKES-NH2 [array2.12, VTGYRLFQKES]
Kd: 0.417 µM

Ac-VTGYRLFKEEL-NH2 [array2.36, VTGYRLFKEEL]
Kd: 7.78 µM

Ac-VTGYRLFKEAL-NH2 [array2.35, VTGYRLFKEAL]
Kd: 5.15 µM

Ac-VTGYRLFEQAS-NH2 [array2.23, VTGYRLFEQAS]
Kd: 4.17 µM

Ac-VEGYRLFKKAL-NH2 [array2.83, VEGYRLFKKAL]
Kd: 1.59 µM

Ac-VEGYRLFQKAL-NH2 [array2.92, VEGYRLFQKAL]
Kd: 2.02 µM

Ac-VEGYRLFQEIS-NH2 [array2.70, VEGYRLFQEIS]
Kd: 230 µM

Ac-VTGYRLFQQIL-NH2 [array2.40, VTGYRLFQQIL]
Kd: 122 µM

Ac-VTGYRLFKKIS-NH2 [array2.1, VTGYRLFKKIS]
Kd: 0.0133 µM

Ac-VTGYRLFEQAL-NH2 [array2.50, VTGYRLFEQAL]
Kd: 40.4 µM
